Molecular target: T1, androgen receptor (AR) (Homo sapiens, UniProt P10275, T878A)
T1 construct: LNCaP cells expressing ARR2PB-FireflyLuc and CMV-RenillaLuc; endogenous in cells; host or cells: LNCaP cells carrying ARR2PB-FireflyLuc and CMV-RenillaLuc reporters
T1 sequence (P10275 1-920 T878A): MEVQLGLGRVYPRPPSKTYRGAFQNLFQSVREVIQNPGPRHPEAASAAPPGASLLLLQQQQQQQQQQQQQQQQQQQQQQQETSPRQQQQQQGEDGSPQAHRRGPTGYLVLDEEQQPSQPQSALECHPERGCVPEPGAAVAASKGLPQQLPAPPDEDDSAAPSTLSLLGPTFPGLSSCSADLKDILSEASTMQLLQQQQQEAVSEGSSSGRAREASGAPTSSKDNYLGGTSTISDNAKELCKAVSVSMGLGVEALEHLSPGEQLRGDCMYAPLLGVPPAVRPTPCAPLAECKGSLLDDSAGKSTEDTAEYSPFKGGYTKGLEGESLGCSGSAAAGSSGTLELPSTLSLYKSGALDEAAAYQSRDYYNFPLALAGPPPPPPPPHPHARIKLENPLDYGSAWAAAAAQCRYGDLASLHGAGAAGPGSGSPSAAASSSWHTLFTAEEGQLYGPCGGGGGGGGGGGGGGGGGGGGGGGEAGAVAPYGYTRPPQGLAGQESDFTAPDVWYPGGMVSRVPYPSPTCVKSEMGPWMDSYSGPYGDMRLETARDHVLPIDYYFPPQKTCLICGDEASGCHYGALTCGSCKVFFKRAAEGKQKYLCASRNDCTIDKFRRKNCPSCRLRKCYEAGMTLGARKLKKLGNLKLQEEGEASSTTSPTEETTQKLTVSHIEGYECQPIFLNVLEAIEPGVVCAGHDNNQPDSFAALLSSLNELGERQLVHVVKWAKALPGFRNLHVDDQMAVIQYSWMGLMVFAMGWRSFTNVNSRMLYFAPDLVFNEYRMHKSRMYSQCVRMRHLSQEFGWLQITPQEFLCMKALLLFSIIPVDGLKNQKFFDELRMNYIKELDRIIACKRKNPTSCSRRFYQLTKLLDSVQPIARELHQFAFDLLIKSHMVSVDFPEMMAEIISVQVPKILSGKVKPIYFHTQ
Assay: AR reporter assay in LNCaP cells expressing ARR2PB-FireflyLuc and CMV-RenillaLuc, antagonist mode (% remaining activity, IC50)
Type: cell-based
Settings: 48 h at 37° C., class symbols A-D, read-out: IC50
Summary of the method: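 LNCaP cells carrying ARR2PB-firefly and CMV-Renilla luciferase reporters were treated 48 h at 37 °C with compound plus 0.5 nM DHT. Signals were normalised between 0.5 nM DHT alone and 10 uM enzalutamide + DHT to give % remaining activity, and IC50 was obtained by non-linear regression.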

| Compound | IC50 [nM] |
| --- | --- |
| CC(=O)N1C[C@@H](F)[C@H](Oc2ncc(-c3c[nH]c4c(C#N)cccc34)nc2C)C1 [Compound 272] | 100 to 1000 |
| Cc1nc(-c2c[nH]c3c(Cl)cccc23)cnc1O[C@@H]1CNC[C@H]1F [Compound 273] | 100 to 1000 |
| Cc1nc(-c2c[nH]c3c(C#N)cccc23)cnc1OC1CC(N)C1 (stereo not shown) [Compound 274] | 100 to 1000 |
| Cc1nc(-c2c[nH]c3c(C#N)cccc23)cnc1OC1CCC(N)C1 (stereo not shown) [Compound 275] | > 10000 |
| CC(=O)N1CCC(Oc2ncc(-c3n[nH]c4c(Cl)cccc34)nc2C)C1 (stereo not shown) [Compound 276] | 100 to 1000 |
| Cc1nc(-c2n[nH]c3c(Cl)cccc23)cnc1OC1CCNC1 (stereo not shown) [Compound 277] | 100 to 1000 |
| COc1nc(-c2c[nH]c3c(C#N)cccc23)cnc1OC1CCN(C(C)=O)C1 (stereo not shown) [Compound 278] | 1000 to 10000 |
| Cc1nc(-c2c[nH]c3c(C#N)cccc23)cnc1NCC(C)(C)O [Compound 279] | 100 to 1000 |
| COc1nc(-c2c[nH]c3c(C#N)cccc23)cnc1NCC(C)(C)O [Compound 280] | 100 to 1000 |
| Cc1nc(-c2c[nH]c3c(C#N)cccc23)cnc1SC1CCNC1 (stereo not shown) [Compound 281] | 1000 to 10000 |
| N#Cc1cccc2c(-c3cnc(OC4CCNC4)c(C4CC4)n3)c[nH]c12 (stereo not shown) [Compound 282] | 1000 to 10000 |
| Cc1nc(-c2c[nH]c3c(C#N)cccc23)cnc1OC1CCNC1(C)C (stereo not shown) [Compound 283] | > 10000 |
| Cc1nc(-c2c[nH]c3c(C#N)cccc23)cnc1OC1CNC(C)(C)C1 (stereo not shown) [Compound 284] | > 10000 |
| Cc1nc(-c2c[nH]c3c(C#N)cccc23)cnc1O[C@H]1CCN[C@@H]1C [Compound 285] | 1000 to 10000 |
| Cc1nc(-c2c[nH]c3c(C#N)cccc23)cnc1OCC(C)(C)N [Compound 286] | 1000 to 10000 |
| Cc1nc(-c2c[nH]c3c(C#N)cccc23)cnc1OC(C)CN (stereo not shown) [Compound 287] | 100 to 1000 |
| COc1nc(-c2c[nH]c3c(C#N)cccc23)cnc1N[C@H]1CCN(C(C)=O)C1 [Compound 288] | < 100 |
| COc1nc(-c2c[nH]c3c(C#N)cccc23)cnc1N[C@@H]1CCN(C(C)=O)C1 [Compound 289] | < 100 |
| CC(=O)N1CCC(Oc2cnc(-c3c[nH]c4c(C#N)cccc34)cn2)C1 (stereo not shown) [Compound 290] | 1000 to 10000 |
| CC(=O)N1CCC(Oc2ncc(-c3c[nH]c4c(F)cccc34)nc2C)C1 (stereo not shown) [Compound 291] | 100 to 1000 |
| CC(=O)N1CCC(Oc2ncc(-c3c[nH]c4ncccc34)nc2C)C1 (stereo not shown) [Compound 292] | > 10000 |
| COc1nc(-c2c[nH]c3ncccc23)cnc1NC1CCN(C(C)=O)C1 (stereo not shown) [Compound 293] | > 10000 |

| Compound | IC50 [nM] |
| --- | --- |
| COc1nc(-c2c[nH]c3c(C#N)cccc23)cnc1N(C)C1CCN(C(C)=O)C1 (stereo not shown) [Compound 294] | 100 to 1000 |
| CC1(C)NC(=O)c2ccc(-c3c[nH]c4c(F)cccc34)nc21 [Compound 295] | 100 to 1000 |
| Cc1nc(-c2c[nH]c3c(Cl)cccc23)cnc1OC1CCNC1 (stereo not shown) [Compound 296] | < 100 |
| Cc1nc(-c2c[nH]c3c(C#N)cccc23)cnc1O[C@@H]1CNC[C@@H]1F [Compound 297] | 100 to 1000 |
| Cc1nc(-c2c[nH]c3c(=O)n(C)ccc23)ccc1OC1CCNC1 (stereo not shown) [Compound 300] | > 10000 |
| Cc1nc(-c2c[nH]c3c(C#N)cccc23)cnc1OCC(C)(C)O [Compound 301] | < 100 |
| Cc1nc(-c2c[nH]c3c(C#N)cccc23)cnc1OC(C)CN (stereo not shown) [Compound 303] | 100 to 1000 |
| CCc1nc(-c2c[nH]c3c(C#N)cccc23)cnc1OC1CCNC1 (stereo not shown) [Compound 305] | > 10000 |
| COc1nc(-c2c[nH]c3c(C#N)cccc23)cnc1OC1CCN(C(C)=O)C1 (stereo not shown) [Compound 306] | 1000 to 10000 |
| CSc1nc(-c2c[nH]c3c(C#N)cccc23)cnc1OC1CCNC1 (stereo not shown) [Compound 307] | > 10000 |
| Cc1nc(-c2c[nH]c3c(C#N)cccc23)cnc1OC1(C)CCNC1 (stereo not shown) [Compound 308] | 1000 to 10000 |
| Cc1nc(-c2coc3cc(F)ccc23)cnc1N [Compound 309] | 100 to 1000 |
| Cc1nc(-c2coc3c(C#N)cccc23)cnc1N [Compound 310] | > 10000 |
| CC(=O)N1CCC(Oc2ncc(-c3c[nH]c4cccnc34)nc2C)C1 (stereo not shown) [Compound 311] | > 10000 |
| CC(=O)N1CCC(Oc2ncc(-c3n[nH]c4c(C#N)cccc34)nc2C)C1 (stereo not shown) [Compound 312] | 1000 to 10000 |
| CC(=O)N1CCC(Oc2ncc(-c3c[nH]c4c(C)cccc34)nc2C)C1 (stereo not shown) [Compound 313] | 1000 to 10000 |
| Cc1cccc2c(-c3ccc4c(n3)C(C)(C)NC4=O)c[nH]c12 [Compound 314] | 100 to 1000 |
| CC1(C)NC(=O)c2ccc(-c3c[nH]c4ncccc34)nc21 [Compound 315] | 100 to 1000 |
| COc1nc(-c2c[nH]c3c(C#N)cccc23)ccc1C(N)=O [Compound 316] | > 10000 |
| COCCN1CCC(Oc2ncc(-c3c[nH]c4c(C#N)cccc34)nc2C)C1 (stereo not shown) [Compound 317] | 1000 to 10000 |
| COCC(=O)N1CCC(Oc2ncc(-c3c[nH]c4c(C#N)cccc34)nc2C)C1 (stereo not shown) [Compound 318] | 100 to 1000 |
| Cc1nc(-c2c[nH]c3c(C#N)cccc23)cnc1OC1CNCC1(F)F (stereo not shown) [Compound 322] | 1000 to 10000 |

| Compound | IC50 [nM] |
| --- | --- |
| CC(=O)N1CC(Oc2ncc(-c3c[nH]c4c(C#N)cccc34)nc2C)C(F)(F)C1 (stereo not shown) [Compound 323] | 100 to 1000 |
| Cc1nc(-c2c[nH]c3c(C#N)cccc23)ccc1OCC(C)(C)O [Compound 324] | 1000 to 10000 |
| Cc1nc(-c2c[nH]c3c(C#N)cccc23)cnc1OCC1(C)COC1 [Compound 325] | 100 to 1000 |
| Cc1nc(-c2c[nH]c3c(C#N)cccc23)cnc1N(C)CC(C)(C)O [Compound 326] | 1000 to 10000 |
| CCN(CC(C)(C)O)c1ncc(-c2c[nH]c3c(C#N)cccc23)nc1C [Compound 327] | 1000 to 10000 |
| Cc1nc(-c2c[nH]c3c(C#N)cccc23)cnc1O[C@H]1CN[C@@H](C)C1 [Compound 328] | > 10000 |
| Cc1nc(-c2c[nH]c3c(C#N)cccc23)cnc1O[C@H]1CN[C@H](C)C1 [Compound 329] | > 10000 |
| Cc1nc(-c2c[nH]c3c(C#N)cccc23)cnc1O[C@@H]1CN[C@@H](C)C1 [Compound 330] | > 10000 |
| Cc1nc(-c2c[nH]c3c(C#N)cccc23)cnc1O[C@@H]1CN[C@H](C)C1 [Compound 331] | > 10000 |
| Cc1nc(-c2c[nH]c3c(F)cccc23)cnc1OCC(C)(C)O [Compound 332] | 1000 to 10000 |
| Cc1nc(-c2c[nH]c3c(C#N)cccc23)cnc1OCC1(O)CC1 [Compound 333] | > 10000 |
| Cc1nc(-c2c[nH]c3c(C#N)cccc23)cnc1O[C@@H](C)[C@H](C)O [Compound 334] | 1000 to 10000 |
| Cc1nc(-c2c[nH]c3c(C#N)cccc23)cnc1O [Compound 335] | 1000 to 10000 |
| Cc1nc(-c2csc3cc(F)ccc23)cnc1OCC(C)(C)O [Compound 336] | 100 to 1000 |
| Cc1nc(-c2coc3c(Cl)cccc23)cnc1OCC(C)(C)O [Compound 337] | 100 to 1000 |
| Cc1nc(-c2coc3ccccc23)cnc1OCC(C)(C)O [Compound 338] | > 10000 |
| Cc1nc(-c2c[nH]c3c(C#N)cccc23)cnc1OCCO [Compound 340] | > 10000 |
| Cc1nc(-c2c[nH]c3c(C#N)cccc23)cnc1OCC(C)O (stereo not shown) [Compound 341] | 1000 to 10000 |
| CC(C)(O)COc1ncc(-c2c[nH]c3c(C#N)cccc23)nc1C1CC1 [Compound 342] | > 10000 |
| Cc1nc(-c2c[nH]c3c(Cl)nccc23)cnc1OCC(C)(C)O [Compound 343] | > 10000 |

From patent publication US12448368B2, “Indole compounds as androgen receptor modulators” (NIDO BIOSCIENCES, INC., priority 2020, dated 2025)
